According to patent US20180071280A1, “MODULATORS OF CELL DEATH PROCESSES” (URIFER LTD., priority 2015, published 2018):
“Also recorded” adds a separate entry of the source. Where a name gives a salt, the structure may show the parent alone.

Tests used:
[1] = system: malignant cells (CC and MDA cells); assay: Cellular ATP level (HPLC) in malignant cells; type: cell-based, human; details: CC cells, high glucose
Experimental: Quantification of intracellular ATP was carried out using HPLC as previously described.
Cells were suspended in 400 μl cold 0.4M perchloric acid solution, incubated on ice for 15 min, centrifuged at 12,000×g, neutralized with 4M K2CO3 to pH 7.5, incubated for 15 min on ice and concentrated (10,000×g). Chromatographic analyses were performed using Hitachi Elite LaChrom system at 30° C. applying supernatants to SUPELCOSIL™ LC-18-S HPLC Column (5 μm particle size, L×I.D. 25 cm×2.1 mm), flow rate 0.2 mL/min under isocratic elution conditions (50 mM potassium phosphate, 100 mM triethylamine, pH 6.5 (adjusted with phosphoric acid)):Acetonitrile (98.5:1.5)). Each analysis cycle was set to 30 min, chromatographic flow was monitored at 260 nm and integrated using EZChrom Elite Software.

[2] = system: AMPK-mTOR signaling pathway; assay: WB of AMPK-mTOR signaling pathway phosphorylation in CC cells; type: cell-based, human
Experimental: (§1) WB analyses were carried out as previously described before. In brief, cells were lysed in RIPA buffer mixed with protease inhibitors and separated on SDS-PAGE gel, transferred to PVDF membrane treated with 5% skim milk to exclude non-specific background and incubated with a primary antibody over-night. The membrane was incubated for 1 h with a secondary antibody conjugated to Horseradish Peroxidase (HRP). The protein-antibody complex was visualized using the SuperSignal West Pico Chemiluminescent Substrate (Thermo scientific, USA).

CC cells = assay: Autophagy in CC cells (TEM, LC3 immuno-staining, WB); type: cell-based, human
Experimental: as §1
(§2) Cells were fixed with 4% paraformaldehyde (30 min) and incubated with Permeabilization Solution containing 0.1% Triton X-100 (Sigma-Aldrich, Israel) in PBS at room temperature for 1 h. Nonspecific binding was blocked with PBS containing 10% fetal bovine serum for 1 h at room temperature. Cells were incubated with specific antibodies diluted 1:100 overnight at 4° C. Cells were washed (5 min) in PBS containing 0.2% Tween-20 (Sigma-Aldrich, Israel) to remove non-specific binding. Bound primary antibodies were detected by Alexa Fluor® 488 goat anti-mouse IgG antibody or Alexa Fluor® 594 goat anti-rabbit IgG antibody (Molecular Probes, Invitrogen, U.K.). Nuclei were visualized by incubation with Hoechst 33342 solution for 10 min (1:500). Nonspecific staining, as determined by binding to the secondary antibody only, was negligible. The immunostained slides were examined under the fluorescence microscope AxioimagerZ1 (Zeiss, Germany) or confocal fluorescence microscope (Olympus-FV1000).
Cells were grown in MEM or DMEM, washed twice with PBS and fixed for 5 minutes in Karnovsky fixative (2.5% glutaraldehyde, 2.5% paraformaldehyde in cacodylate buffer pH 7.4) on the tissue culture plate. Cells were then harvested, and transferred to 1.5 ml tube for further 1 h fixation at room temperature. The cells were then stored O.N at 4C° after which the samples were washed in 0.1 M cacodylate buffer and post-fixed with 1% OsO4 in 0.1 M sodium cacodylate buffer (Sigma-Aldrich, Israel) for 1 h. […]

PARP-1 = PARP-1 poly-ADP-ribosylation activity in CC cells (WB); type: cell-based, human; details: CC cells
Experimental: as §1

Hfb cells = assay: Glycolysis rate (secreted lactate) in Hfb cells; type: cell-based, human; details: low or high glucose
Experimental: Cells were grown in MEM containing 1 gr/lit glucose or in DMEM with 4.5 gr/lit glucose. Secreted lactate levels were determined using Lactate Colorimetric Assay Kit II according to the manufacturer's protocol (Biovision, USA).

HKII = assay: Glycolysis enzyme levels in CC cells (WB, ICC); type: cell-based, human
Experimental: as §1
as §2, with “Cells were washed (5 min) in PBS containing 0.2% Tween-20 (Sigma-Aldrich, Israel) to remove non-specific binding.” left out, “Nuclei were visualized by incubation with Hoechst 33342 solution for 10 min (1:500).” left out

[3] = Pharmacokinetic study in mice; type: in vivo; details: IP
Experimental: The investigation of PK properties of 0260 was carried out using 30 ICR/CD-1 mice. Intraperitoneal (IP) administration was used, and the solution was administered as 10 ml per 1 kg of animal body weight. At 5, 15, 30, 60, 120, and 240 min after administration (5 mice per each time point) mice were decapitated and blood samples were taken in EDTA-containing tubes. Plasma was prepared from the collected blood by centrifugation and then forwarded for LC-MS/MS analysis. A high sensitivity analytical method was developed for detection of 0260. Analysis was performed in the Agilent 1100 HPLC system including degasser, the binary pump, autosampler, and absorption detector with variable wavelength ranging between 190-600 nm. The HPLC system was coupled with the tandem mass spectrometer API 2000 (Applied Biosystems). The TurboIonSpray ion source was used in the positive ion mode. Data acquisition was performed with Analyst 1.3.1 software.

[4] = target: CAMK1 (Calcium/calmodulin-dependent protein kinase type 1) (Homo sapiens, UniProt Q14012); assay: Kinase panel assay, CAMK1; type: biochemical; details: above threshold
Experimental: (§3) Kinase panel assays were performed using the FRET-based Z′-LYTE, Lantha Screen and Adapta enzymatic kinase assay systems (Life Technologies, Carlsbad, Calif.), which were carried out using the SelectScreen Kinase Profiling Service (Life Technologies). The standard reaction contained 2 μM peptide substrate, ATP at the optimal assay concentration, 50 mM HEPES (pH 7.5), 0.01% Brij-35, 10 mM MgCl2, 1 mM EGTA, and the tested kinase. Each kinase was checked for its activity in duplicate data points (n=2) and was assayed following the detailed procedures outlined in the SelectScreen service. Percent inhibition or ATP displacement (For Lantha screen) represent a ratio of phosphorylated/ATP bound product formed in the presence of the compound compared with phosphorylated/ATP bound product formed in reactions containing 1% DMSO.
(§4) Kinome technique was used for monitoring phosphorylation events and phosphorylation targets of 0260-Fer interaction, using peptide arrays for human targets and phosphorylation-specific antibodies. Construction of peptide arrays relied on information from phosphorylation databases. The following proteins were determined as significant above the threshold of 40% kinase activity inhibition or ATP displacement to the Kinase domain site.

[5] = target: DAPK1 (Death-associated protein kinase 1) (Homo sapiens, UniProt P53355); assay: Kinase panel assay, DAPK1; type: biochemical; details: above threshold
Experimental: as §3, §4

[6] = target: CSF1R (Colony stimulating factor 1 receptor-FMS) (Homo sapiens, UniProt P07333); assay: Kinase panel assay, CSF1R; type: biochemical; details: above threshold
Experimental: as §3, §4

MAPK8 (JNK1) = MAPK8 (JNK1) (Homo sapiens, UniProt P45983); assay: Kinase panel assay, MAPK8; type: biochemical; details: above threshold
Experimental: as §3, §4

MINK1 = MINK1 (Homo sapiens, UniProt Q8N4C8); assay: Kinase panel assay, MINK1; type: biochemical; details: above threshold
Experimental: as §3, §4

Chain of MAPK8 (JNK1) (P45983 whole entry): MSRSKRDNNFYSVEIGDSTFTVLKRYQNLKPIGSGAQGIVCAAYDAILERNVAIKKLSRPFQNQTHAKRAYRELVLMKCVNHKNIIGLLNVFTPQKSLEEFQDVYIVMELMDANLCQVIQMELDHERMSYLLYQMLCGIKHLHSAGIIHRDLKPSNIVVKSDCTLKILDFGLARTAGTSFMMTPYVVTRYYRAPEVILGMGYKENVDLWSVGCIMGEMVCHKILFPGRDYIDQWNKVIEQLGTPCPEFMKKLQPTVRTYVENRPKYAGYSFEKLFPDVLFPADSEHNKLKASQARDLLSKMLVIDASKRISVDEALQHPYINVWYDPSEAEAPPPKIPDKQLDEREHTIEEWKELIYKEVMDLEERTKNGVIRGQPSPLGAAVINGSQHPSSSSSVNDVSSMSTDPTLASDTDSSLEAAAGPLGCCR
Chain of MINK1 (Q8N4C8 1-320 limits assumed): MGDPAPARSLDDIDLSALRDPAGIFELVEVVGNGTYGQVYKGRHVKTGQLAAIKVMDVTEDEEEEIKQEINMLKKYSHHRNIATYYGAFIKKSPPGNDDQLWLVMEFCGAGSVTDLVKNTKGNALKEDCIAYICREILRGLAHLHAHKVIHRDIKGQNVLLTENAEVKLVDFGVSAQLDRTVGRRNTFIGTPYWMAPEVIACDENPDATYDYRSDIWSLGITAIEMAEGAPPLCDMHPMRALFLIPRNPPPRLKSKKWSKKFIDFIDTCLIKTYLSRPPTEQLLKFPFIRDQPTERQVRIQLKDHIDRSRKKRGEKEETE
Chain of DAPK1 (Death-associated protein kinase 1) (P53355 whole entry): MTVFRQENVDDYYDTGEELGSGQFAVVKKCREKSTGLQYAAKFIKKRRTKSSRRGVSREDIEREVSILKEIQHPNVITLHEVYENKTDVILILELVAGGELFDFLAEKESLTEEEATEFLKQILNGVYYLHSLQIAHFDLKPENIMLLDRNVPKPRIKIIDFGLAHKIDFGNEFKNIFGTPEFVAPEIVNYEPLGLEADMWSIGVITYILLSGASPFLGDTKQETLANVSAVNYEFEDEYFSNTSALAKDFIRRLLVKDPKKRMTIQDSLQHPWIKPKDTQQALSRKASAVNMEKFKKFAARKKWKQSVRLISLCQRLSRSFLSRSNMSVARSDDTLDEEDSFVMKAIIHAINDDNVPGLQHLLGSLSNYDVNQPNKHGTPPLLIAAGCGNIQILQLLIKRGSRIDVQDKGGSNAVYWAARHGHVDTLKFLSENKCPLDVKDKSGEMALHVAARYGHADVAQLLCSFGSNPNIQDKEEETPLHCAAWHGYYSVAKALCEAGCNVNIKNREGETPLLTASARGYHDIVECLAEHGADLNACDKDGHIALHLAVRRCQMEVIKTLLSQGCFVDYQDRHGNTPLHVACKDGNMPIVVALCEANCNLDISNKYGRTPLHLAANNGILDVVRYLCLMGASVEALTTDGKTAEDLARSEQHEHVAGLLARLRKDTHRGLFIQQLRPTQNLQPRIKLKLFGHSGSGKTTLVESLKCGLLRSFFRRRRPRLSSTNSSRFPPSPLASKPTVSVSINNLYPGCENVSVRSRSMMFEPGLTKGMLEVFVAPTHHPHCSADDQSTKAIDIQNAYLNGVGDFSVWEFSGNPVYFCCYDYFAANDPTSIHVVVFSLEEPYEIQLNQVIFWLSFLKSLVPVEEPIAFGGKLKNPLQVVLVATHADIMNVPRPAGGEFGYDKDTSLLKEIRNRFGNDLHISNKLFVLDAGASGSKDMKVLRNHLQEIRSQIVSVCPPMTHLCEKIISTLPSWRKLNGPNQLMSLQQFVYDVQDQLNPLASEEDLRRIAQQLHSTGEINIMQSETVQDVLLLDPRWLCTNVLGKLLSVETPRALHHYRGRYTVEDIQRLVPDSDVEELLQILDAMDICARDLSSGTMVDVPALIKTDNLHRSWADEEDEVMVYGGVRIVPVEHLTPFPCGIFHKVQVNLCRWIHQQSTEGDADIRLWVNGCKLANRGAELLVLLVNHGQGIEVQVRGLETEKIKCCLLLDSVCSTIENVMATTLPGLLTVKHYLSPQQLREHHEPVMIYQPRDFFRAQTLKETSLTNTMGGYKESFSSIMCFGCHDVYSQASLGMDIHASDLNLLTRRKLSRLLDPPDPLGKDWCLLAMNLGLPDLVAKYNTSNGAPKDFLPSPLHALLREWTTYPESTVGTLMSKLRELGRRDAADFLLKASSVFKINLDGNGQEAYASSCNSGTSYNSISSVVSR
Chain of CAMK1 (Calcium/calmodulin-dependent protein kinase type 1) (Q14012 whole entry): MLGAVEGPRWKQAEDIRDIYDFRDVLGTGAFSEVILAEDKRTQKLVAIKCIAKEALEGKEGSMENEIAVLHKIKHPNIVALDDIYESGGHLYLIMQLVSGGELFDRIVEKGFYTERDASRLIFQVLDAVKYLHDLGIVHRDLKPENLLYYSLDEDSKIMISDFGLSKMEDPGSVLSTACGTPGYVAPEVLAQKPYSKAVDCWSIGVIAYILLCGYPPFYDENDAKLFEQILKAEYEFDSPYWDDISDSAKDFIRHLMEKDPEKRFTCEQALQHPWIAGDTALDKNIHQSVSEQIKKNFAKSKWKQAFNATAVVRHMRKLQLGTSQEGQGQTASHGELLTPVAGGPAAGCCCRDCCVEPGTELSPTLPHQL
Chain of CSF1R (Colony stimulating factor 1 receptor-FMS) (P07333 20-972): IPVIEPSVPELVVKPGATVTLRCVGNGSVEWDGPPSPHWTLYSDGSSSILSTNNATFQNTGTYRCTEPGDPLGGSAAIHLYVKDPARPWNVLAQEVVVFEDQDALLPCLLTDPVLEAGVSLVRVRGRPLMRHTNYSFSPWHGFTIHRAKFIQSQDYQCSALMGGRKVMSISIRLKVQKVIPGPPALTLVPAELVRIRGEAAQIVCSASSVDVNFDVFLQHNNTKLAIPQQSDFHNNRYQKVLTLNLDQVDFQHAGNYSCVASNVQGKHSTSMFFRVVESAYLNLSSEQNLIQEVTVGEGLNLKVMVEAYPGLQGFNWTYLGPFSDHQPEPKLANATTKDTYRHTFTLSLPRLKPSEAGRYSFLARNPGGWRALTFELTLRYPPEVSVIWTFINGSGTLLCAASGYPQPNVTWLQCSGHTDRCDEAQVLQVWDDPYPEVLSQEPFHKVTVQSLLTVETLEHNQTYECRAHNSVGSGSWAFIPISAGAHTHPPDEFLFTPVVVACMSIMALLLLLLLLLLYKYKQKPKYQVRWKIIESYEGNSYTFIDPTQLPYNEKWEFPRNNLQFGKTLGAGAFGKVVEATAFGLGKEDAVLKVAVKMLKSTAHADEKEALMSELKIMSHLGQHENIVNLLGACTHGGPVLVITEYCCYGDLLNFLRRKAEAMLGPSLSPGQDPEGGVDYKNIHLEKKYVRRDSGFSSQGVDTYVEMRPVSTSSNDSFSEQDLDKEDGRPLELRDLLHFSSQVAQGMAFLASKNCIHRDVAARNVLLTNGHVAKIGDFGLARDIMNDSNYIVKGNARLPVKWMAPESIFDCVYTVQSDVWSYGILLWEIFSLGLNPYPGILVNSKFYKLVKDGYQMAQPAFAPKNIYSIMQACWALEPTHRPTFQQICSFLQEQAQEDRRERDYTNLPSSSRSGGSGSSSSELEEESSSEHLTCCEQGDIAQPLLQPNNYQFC

CC(C)c1ccc(-c2cn3nc(N4CCC(CN5CCN(C)CC5)CC4)sc3n2)cc1 [compound 0260, tartarate salt of 6-(4-isopropyl-phenyl)-2-{4-[(4-methyl-piperazin-1-yl)methyl]piperidin-1-yl}-imidazo [2,1-b][1,3,4]thiadiazole]
effect on ATP levels under high glucose medium [1]: reducing its effect on ATP levels | AMPK phosphorylation [2]: phosphorylated and activated | Akt phosphorylation [2]: decrease in the activating phosphorylation | Raptor phosphorylation on serines 792 and 722 [2]: inhibitory phosphorylation | mTOR phosphorylation state [2]: not changed | autophagy / autophagosomes (CC cells; TEM and LC3 immuno-staining): autophagy was induced and autophagosomes accumulated | level of LC3II (CC cells; WB): relative increase | poly-ADPr / PARP-1 poly-ADP-ribosylation activity (PARP-1): induction of poly-ADPr; also recorded: significant increase | elevation in the glycolytic rate (Hfb cells): not observed | HKII level (HKII): down-regulation of HKII | half-life ([3]; ICR/CD-1, mouse, plasma, read-out: T1/2 in the blood): 2.92 h | volume of distribution [3]: 4.244 L/kg | kinase activity inhibition or ATP displacement [4]: > 40% | kinase activity inhibition or ATP displacement [5]: > 40% | kinase activity inhibition or ATP displacement [6]: > 40% | kinase activity inhibition or ATP displacement (MAPK8 (JNK1)): > 40% | kinase activity inhibition or ATP displacement (MINK1): > 40%
